Measurements taken from patent US6355619B1, “Peptide tumor cell growth inhibitors” (Board of Regents, The University of Texas System, priority 1996, dated 2002).
Where no end group is shown, it is not given here. [ ]: non-standard residue; d: D form.

What was measured:
[1] = tested on: IL-8 receptors on neutrophils; assay: Inhibition of 125I-labeled IL-8 binding to human neutrophils; details: for % Binding Inhibition (IL-8 binding to neutrophils): synthetic peptides, standard assay (Table 6)
Experimental: Therefore, in pursuing this aim, the present inventors assayed various other peptide compositions for IL-8 inhibitory activity by screening a library of 400 groups of hexapeptides. In these screening assays, ^125I-labeled interleukin-8 (10^−12 M) was mixed with 100 μM peptide, then added to neutrophils and incubated at 4° C. for 90 min. The bound radioactivity was separated from unbound by centrifugation through a dense cushion of a mixture of paraffin and silicon oils and the ^125I bound to neutrophils was counted in a gamma radiation spectrometer, allowing the results to be expressed as the percent of IL-8 binding which was inhibited.
The use of human subjects for acquisition of neutrophils was approved by the Institutional Review Board for human experimentation. For the preparation of neutrophils, human blood was anticoagulated with heparin for enzyme release studies and with 0.33% sodium citrate for other studies. For chemotactic and enzyme release studies neutrophils were separated by dextran sedimentation and erythrocyte lysis by the method of Boyum (Kohler and Milstein, 1975). For binding studies and cytotoxic studies, the neutrophils were further purified in gradients of Percoll (Pharmacia Fine Chemicals, Piscataway, N.J.) to a purity of 90-93% (Kohler and Milstein, 1975).
Recombinant human IL-8 (72 amino acids; Pepro Tech Inc., Rocky Hill, N.J.) was radioactively labeled with ^125I by the chloramine T method of Hunter and Greenwood (Hunter and Greenwood, 1962). Binding studies were performed according to Besemer et al. (1989), as follows: Neutrophils in phosphate buffered saline pH 7.4 (PBS) containing 0.1% bovine serum albumin (BSA) were incubated with labeled ligand in the presence or absence of the peptide being tested for 90 min at 4° C. to reach equilibrium and then centrifuged at 12,000×g for 3 min in Beckman B microfuge (Beckman Instruments, Fullerton, Calif.), through a cushion consisting of a mixture of paraffin oil Fisher Scientific, Fair Lawn, N.J.) and silicon oil (Serva Co., N.Y., N.Y.). The pellet and supernatant were then counted in a gamma radiation spectrometer. The non-specific binding was estimated to measure the binding in the presence of 100-fold excess of non-labeled ligand. The binding constants were calculated using the computer programs Lundon I and Lundon II.
In these studies, a screening for inhibition was carried out at 100 μM concentration of the peptide being tested, with a 10^−12 M concentration of IL-8. In the first series of studies, twenty peptides were synthesized with the carboxyl-terminal residue of RRWWCX (SEQ ID NO:23) being changed to each of the standard protein amino acids in turn.

[2] = molecular target: IL-8 receptors on human neutrophils (human); assay: inhibition of 125I-IL-8 (10^-12 M) binding to human neutrophils, peptide 100 µM
[3] = molecular target: IL-8 receptors on human neutrophils (human); assay: inhibition of 125I-IL-8 binding to human neutrophils, method of Example I; D-amino acid heptamer series
[4] = first set of heptamer studies, D-amino acid RRWWCRX series, methodology of Example I
[5] = 100 μM peptide, 10^−12 M IL-8, hexamer RRWWCX series, first screen

Ac-KELRCQ-NH2 [IL-8 homologue peptide, reference compound]
ability to inhibit IL-8 binding to neutrophils [1]: None of these peptides had the ability to inhibit IL-8 binding
% Binding Inhibition (IL-8 binding to neutrophils) [1]: −0.4 ± 11.8%

Arg Arg Trp Trp Cys Arg Ala ([dR][dR][dW][dW][dC][dR][dA]) [rrwwcra]
% INHIB. (IL-8 binding to neutrophils) [1, 4]: 95.3%

Arg Arg Trp Trp Cys Arg Arg ([dR][dR][dW][dW][dC][dR][dR]) [rrwwcrr]
% INHIB. (IL-8 binding to neutrophils) [1, 4]: 102.8%

Arg Arg Trp Trp Cys Arg Asn ([dR][dR][dW][dW][dC][dR][dN]) [rrwwcrn]
% INHIB. (IL-8 binding to neutrophils) [1, 4]: 110.8%

Arg Arg Trp Trp Cys Arg Asp ([dR][dR][dW][dW][dC][dR][dD]) [rrwwcrd]
% INHIB. (IL-8 binding to neutrophils) [1, 4]: 107.0%

Arg Arg Trp Trp Cys Arg Cys (Ac-[dR][dR][dW][dW][dC][dR][dC]-NH2; not fully specified; printed as Arg Arg Trp Trp Cys Arg Cys; cysteine pairing not given here) [rrwwcrc]
potency as inhibitor relative to Ac-rrwwcr-NH2 [1]: almost four times as potent
inhibition of IL-8 binding to neutrophils ([1]; 10 μM peptide (FIG. 9)): 80%
% INHIB. (IL-8 binding to neutrophils) [1, 4]: 107.7%
more effective than the next best heptamer peptide ([1]; lower peptide concentration (FIG. 9)): ~56%

Arg Arg Trp Trp Cys Arg Gln ([dR][dR][dW][dW][dC][dR][dQ]) [rrwwcrq]
% INHIB. (IL-8 binding to neutrophils) [1, 4]: 89.2%

Arg Arg Trp Trp Cys Arg Glu ([dR][dR][dW][dW][dC][dR][dE]) [rrwwcre]
% INHIB. (IL-8 binding to neutrophils) [1, 4]: 99.1%

Arg Arg Trp Trp Cys Arg Gly ([dR][dR][dW][dW][dC][dR]G) [rrwwcrg]
% INHIB. (IL-8 binding to neutrophils) [1, 4]: 108.0%

Arg Arg Trp Trp Cys Arg His ([dR][dR][dW][dW][dC][dR][dH]) [rrwwcrh]
% INHIB. (IL-8 binding to neutrophils) [1, 4]: 107.0%

Arg Arg Trp Trp Cys Arg Ile ([dR][dR][dW][dW][dC][dR][dI]) [rrwwcri]
% INHIB. (IL-8 binding to neutrophils) [1, 4]: 93.9%

Arg Arg Trp Trp Cys Arg Leu ([dR][dR][dW][dW][dC][dR][dL]) [rrwwcrl]
% INHIB. (IL-8 binding to neutrophils) [1, 4]: 99.1%

Arg Arg Trp Trp Cys Arg Lys ([dR][dR][dW][dW][dC][dR][dK]) [rrwwcrk]
% INHIB. (IL-8 binding to neutrophils) [1, 4]: 113.1%

Arg Arg Trp Trp Cys Arg Met ([dR][dR][dW][dW][dC][dR][dM]) [rrwwcrm]
% INHIB. (IL-8 binding to neutrophils) [1, 4]: 96.2%

Arg Arg Trp Trp Cys Arg Phe ([dR][dR][dW][dW][dC][dR][dF]) [rrwwcrf]
% INHIB. (IL-8 binding to neutrophils) [1, 4]: 105.6%

Arg Arg Trp Trp Cys Arg Pro ([dR][dR][dW][dW][dC][dR][dP]) [rrwwcrp]
% INHIB. (IL-8 binding to neutrophils) [1, 4]: 87.3%

Arg Arg Trp Trp Cys Arg Ser ([dR][dR][dW][dW][dC][dR][dS]) [rrwwcrs]
% INHIB. (IL-8 binding to neutrophils) [1, 4]: 70.4%

Arg Arg Trp Trp Cys Arg Thr ([dR][dR][dW][dW][dC][dR][dT]) [rrwwcrt]
% INHIB. (IL-8 binding to neutrophils) [1, 4]: 56.3%

Arg Arg Trp Trp Cys Arg Trp ([dR][dR][dW][dW][dC][dR][dW]) [rrwwcrw]
% INHIB. (IL-8 binding to neutrophils) [1, 4]: 106.3%

Arg Arg Trp Trp Cys Arg Tyr ([dR][dR][dW][dW][dC][dR][dY]) [rrwwcry]
% INHIB. (IL-8 binding to neutrophils) [1, 4]: 85.4%

Arg Arg Trp Trp Cys Arg Val ([dR][dR][dW][dW][dC][dR][dV]) [rrwwcrv]
% INHIB. (IL-8 binding to neutrophils) [1, 4]: 89.2%

Arg Arg Trp Trp Cys Asp (Ac-RRWWCD; also: D-amino acids, positions not given here)
ability to inhibit IL-8 binding to neutrophils [1]: only minimally active
% INHIB. (IL-8 binding to neutrophils) [1, 5]: 11.8%

ELRCQCIKTY [IL-8 homologue including the C-X-C motif, reference compound]
ability to inhibit IL-8 binding to neutrophils [1]: None of these peptides had the ability to inhibit IL-8 binding
% Binding Inhibition (IL-8 binding to neutrophils) [1]: 7.6 ± 2.1%

ELRMQMIKTY [reference compound]
ability to inhibit IL-8 binding to neutrophils [1]: None of these peptides had the ability to inhibit IL-8 binding
% Binding Inhibition (IL-8 binding to neutrophils) [1]: −6.9 ± 3.0%

ELRSQSIKTY [reference compound]
ability to inhibit IL-8 binding to neutrophils [1]: None of these peptides had the ability to inhibit IL-8 binding
% Binding Inhibition (IL-8 binding to neutrophils) [1]: 5.8 ± 3.9%

GWRRWWCDAVLY [segment of cell surface glycoprotein CD11c precursor, human leukocyte adhesion receptor p150,95 alpha chain, reference compound]
ability to inhibit IL-8 binding to neutrophils [1]: lack of activity
% Binding Inhibition (IL-8 binding to neutrophils) [1]: −12.9 ± 2.9%

RRWWCA
% INHIB. (IL-8 binding to neutrophils) [1, 5]: 51.9%

RRWWCA (peptide)
% INHIB. [2]: 51.9%

RRWWCC (cysteine pairing not given here)
% INHIB. (IL-8 binding to neutrophils) [1, 5]: 75.1%

RRWWCC (peptide)
% INHIB. [2]: 75.1%

RRWWCD (peptide)
% INHIB. [2]: 11.8%

RRWWCE
% INHIB. (IL-8 binding to neutrophils) [1, 5]: 17.1%

RRWWCE (peptide)
% INHIB. [2]: 17.1%

RRWWCF
% INHIB. (IL-8 binding to neutrophils) [1, 5]: 80.2%

RRWWCF (peptide)
% INHIB. [2]: 80.2%

RRWWCG
% INHIB. (IL-8 binding to neutrophils) [1, 5]: 86.8%

RRWWCG (peptide)
% INHIB. [2]: 86.8%

RRWWCH
% INHIB. (IL-8 binding to neutrophils) [1, 5]: 87.9%

RRWWCH (peptide)
% INHIB. [2]: 87.9%

RRWWCI
% INHIB. (IL-8 binding to neutrophils) [1, 5]: 45.8%

RRWWCI (peptide)
% INHIB. [2]: 45.8%

RRWWCK
% INHIB. (IL-8 binding to neutrophils) [1, 5]: 110.3%

RRWWCK (peptide)
% INHIB. [2]: 110%

RRWWCL
% INHIB. (IL-8 binding to neutrophils) [1, 5]: 86.9%

RRWWCL (peptide)
% INHIB. [2]: 86.9%

RRWWCM
% INHIB. (IL-8 binding to neutrophils) [1, 5]: 69.0%

RRWWCM (peptide)
% INHIB. [2]: 69%

RRWWCN
IL-8 binding inhibition at lower peptide concentration (FIG. 1) ([1]; 20 μM peptide): did indeed exhibit certain inhibitory properties
% INHIB. (IL-8 binding to neutrophils) [1, 5]: −12.0%

RRWWCN (peptide)
% INHIB. [2]: -12%

RRWWCP
% INHIB. (IL-8 binding to neutrophils) [1, 5]: 88.3%

RRWWCP (peptide)
% INHIB. [2]: 88.3%

RRWWCQ
% INHIB. (IL-8 binding to neutrophils) [1, 5]: 19.2%

RRWWCQ (peptide)
% INHIB. [2]: 19.2%

RRWWCS
% INHIB. (IL-8 binding to neutrophils) [1, 5]: 79.3%

RRWWCS (peptide)
% INHIB. [2]: 79.3%

RRWWCT
% INHIB. (IL-8 binding to neutrophils) [1, 5]: 88.4%

RRWWCT (peptide)
% INHIB. [2]: 88.4%

RRWWCV
% INHIB. (IL-8 binding to neutrophils) [1, 5]: 81.1%

RRWWCV (peptide)
% INHIB. [2]: 81.1%

RRWWCW
% INHIB. (IL-8 binding to neutrophils) [1, 5]: 66.4%

RRWWCW (peptide)
% INHIB. [2]: 66.4%

RRWWCY
% INHIB. (IL-8 binding to neutrophils) [1, 5]: 77.9%

RRWWCY (peptide)
% INHIB. [2]: 77.9%

rrwwcra (peptide)
% INHIB. [3]: 95.3%

rrwwcrd (peptide)
% INHIB. [3]: 107%

rrwwcre (peptide)
% INHIB. [3]: 99.1%

rrwwcrf (peptide)
% INHIB. [3]: 106%

rrwwcrg (peptide)
% INHIB. [3]: 108%

rrwwcrh (peptide)
% INHIB. [3]: 107%

rrwwcri (peptide)
% INHIB. [3]: 93.9%

rrwwcrk (peptide)
% INHIB. [3]: 113%

rrwwcrl (peptide)
% INHIB. [3]: 99.1%

rrwwcrm (peptide)
% INHIB. [3]: 96.2%
